Experimental data reported in patent US6518265B1, “1H-imidazopyridine derivatives” (Hokuriku Seiyaku Co., Ltd., priority 1998, dated 2003).
Structures can show the parent of a compound that is named as a salt.

melting point | SMILES
132 to 133 °C | CCOC(=O)N1CCC(CCn2cnc3c(Oc4ccccc4)nc4ccccc4c32)CC1 [Example 198]
199 to 200 °C | CC(C)(C)OC(=O)N1CCC(CCn2c(-c3ccccc3)nc3c(Cl)nc4ccsc4c32)CC1 [Example 35]
224 to 224.5 °C | Clc1nc2ccsc2c2c1nc(-c1ccccc1)n2CCC1CCNCC1 (as salt: trifluoroacetate) (hydrate or solvate) [Example 137]
201.5 to 202 °C | Cc1ccc(S(=O)(=O)N2CCC(CCn3cnc4c(Oc5ccccc5)nc5ccccc5c43)CC2)cc1 [Example 197]
215 to 220 °C (dec.) | CNC(=S)N1CCC(CCn2c(-c3ccccc3)nc3c(Cl)nc4ccccc4c32)CC1 [Example 201, 4-[2-(4-Chloro-2-phenyl-1H-imidazo[4,5-c]quinolin-1-yl)ethyl]-N-methyl-1-piperidinecarbothioamide]
261 to 272 °C (dec.) | Clc1nc2ccccc2c2c1nc(-c1ccccc1)n2CC[C@@H]1CCCN1 (as salt: fumarate) (hydrate or solvate) [Example 134]
161 to 162 °C | CNc1nc2ccccc2c2c1nc(-c1ccccc1)n2CCC1CCN(C(=O)OC(C)(C)C)CC1 (hydrate or solvate) [Example 95]
225 to 232 °C (dec.) | Clc1nc2c(c3c1nc(-c1ccccc1)n3CCC1CCNCC1)CCC2 (as salt: trifluoroacetate) [Example 136]
215 to 221 °C (dec.) | Clc1nc2c(c3c1nc(-c1ccccc1)n3CCC1CCNCC1)CCCC2 (as salt: trifluoroacetate) [Example 135]
215 to 218 °C (dec.) | CC(C)(C)OC(=O)N1CCC(CCn2c(-c3ccccc3)nc3c(Cl)nc4c(c32)CCCC4)CC1 [Example 33]
